Results reported in the supplement of paper PMC5908809.

Assays:
[1] = system: normal NK cells expanded with K562-aAPC; experiment: percent inhibition of viability; higher = more inhibition; settings: 72 h, IL-2 2.5 ng/mL
Procedure: (§1)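 Drug sensitivity and resistance testing on K562-aAPC-expanded normal NK cells: 5 concentrations (10-fold steps over a 10,000-fold range), 72 h at 37 °C, viability by CellTiter-Glo normalised to DMSO and benzethonium chloride controls; DSS from the fitted curve.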

DERL-7 (IL-2 2.5 ng/mL) [2] = experiment: as above; settings: 72 h
IMC-1 (IL-2 20 ng/mL) [3] = experiment: as above; settings: 72 h
KAI3 (IL-2 2.5 ng/mL) [4] = experiment: as above; settings: 72 h
KHYG-1 (IL-2 2.5 ng/mL) [5] = experiment: as above; settings: 72 h
NK-92 (IL-2 2.5 ng/mL) [6] = experiment: as above; settings: 72 h
NK-YS (IL-2 2.5 ng/mL) [7] = experiment: as above; settings: 72 h
NKL (IL-2 2.5 ng/mL) [8] = experiment: as above; settings: 72 h
SNK-6 (IL-2 2.5 ng/mL) [9] = experiment: as above; settings: 72 h
YT (IL-2 2.5 ng/mL) [10] = experiment: as above; settings: 72 h
[11] = system: normal primary NK cells, pool 1 (3 donors) (IL-2 2.5 ng/mL); experiment: as above; settings: 72 h
[12] = system: normal primary NK cells, pool 1 (3 donors), resting (IL-2 0 ng/mL); experiment: as above; settings: 72 h
[13] = system: normal primary NK cells, pool 2 (3 donors) (IL-2 2.5 ng/mL); experiment: as above; settings: 72 h
[14] = system: normal primary NK cells, pool 3 (3 donors) (IL-2 2.5 ng/mL); experiment: as above; settings: 72 h
[15] = system: normal NK cells expanded with K562-aAPC; experiment: drug sensitivity score (DSS) (DSS units); higher = more sensitive; extreme values may be limits of the assay; settings: 72 h; IL-2 2.5 ng/mL
Procedure: as §1

DERL-7 (IL-2 2.5 ng/mL) [16] = experiment: as above; settings: 72 h
IMC-1 (IL-2 20 ng/mL) [17] = experiment: as above; settings: 72 h
KAI3 (IL-2 2.5 ng/mL) [18] = experiment: as above; settings: 72 h
KHYG-1 (IL-2 2.5 ng/mL) [19] = experiment: as above; settings: 72 h
NK-92 (IL-2 2.5 ng/mL) [20] = experiment: as above; settings: 72 h
NK-YS (IL-2 2.5 ng/mL) [21] = experiment: as above; settings: 72 h
NKL (IL-2 2.5 ng/mL) [22] = experiment: as above; settings: 72 h
SNK-6 (IL-2 2.5 ng/mL) [23] = experiment: as above; settings: 72 h
YT (IL-2 2.5 ng/mL) [24] = experiment: as above; settings: 72 h
[25] = system: normal primary NK cells, pool 1 (3 donors) (IL-2 2.5 ng/mL); experiment: as above; settings: 72 h
[26] = system: normal primary NK cells, pool 1 (3 donors), resting (IL-2 0 ng/mL); experiment: as above; settings: 72 h
[27] = system: normal primary NK cells, pool 2 (3 donors) (IL-2 2.5 ng/mL); experiment: as above; settings: 72 h
[28] = system: normal primary NK cells, pool 3 (3 donors) (IL-2 2.5 ng/mL); experiment: as above; settings: 72 h

COc1cc2nccc(Oc3ccc(NC(=O)C4(C(=O)Nc5ccc(F)cc5)CC4)cc3)c2cc1OC [Cabozantinib] (max concentration tested 1000 nM)
percent inhibition of viability [%]
Settings	0.1 nM	1 nM	10 nM	100 nM	1000 nM
DERL-7 (IL-2 2.5 ng/mL) [2]	4.09	2.17	6.31	-1.21	8.67
IMC-1 (IL-2 20 ng/mL) [3]	-7.19	0.46	1.98	6.03	8.61
KAI3 (IL-2 2.5 ng/mL) [4]	-1.21	2.25	0.33	-5.2	0.09
KHYG-1 (IL-2 2.5 ng/mL) [5]	-1.92	1.46	4.91	3.42	7.82
NK-92 (IL-2 2.5 ng/mL) [6]	1.61	12.2	13.4	2.98	25.1
NK-YS (IL-2 2.5 ng/mL) [7]	-3.98	-1.22	1.67	-2.46	0.65
NKL (IL-2 2.5 ng/mL) [8]	-19	-5.16	-4.38	-6.13	19.2
SNK-6 (IL-2 2.5 ng/mL) [9]	7.18	7.13	10.3	-6.13	-0.11
YT (IL-2 2.5 ng/mL) [10]	-1.79	-0.81	0.31	0.38	11.3
[1]	-0.51	2.22	1.52	13.2	5.74
[11]	-2.72	-8.6	-1.12	-10.1	-9.52
[12]	8.87	-5.07	-5.31	-16.9	11.5
[13]	-8.26	3.55	9.65	-7.89	11.1
[14]	-18.8	-3.79	10.5	-12.7	-3.82

Settings	drug sensitivity score
DERL-7 (IL-2 2.5 ng/mL) [16]	0
IMC-1 (IL-2 20 ng/mL) [17]	0
KAI3 (IL-2 2.5 ng/mL) [18]	0
KHYG-1 (IL-2 2.5 ng/mL) [19]	0
NK-92 (IL-2 2.5 ng/mL) [20]	1.73
NK-YS (IL-2 2.5 ng/mL) [21]	0
NKL (IL-2 2.5 ng/mL) [22]	0.33
SNK-6 (IL-2 2.5 ng/mL) [23]	0
YT (IL-2 2.5 ng/mL) [24]	0.02
[15]	0
[25]	0
[26]	0.01
[27]	0
[28]	0

CCCCCOC(=O)Nc1nc(=O)n([C@@H]2O[C@H](C)[C@@H](O)[C@H]2O)cc1F [Capecitabine] (max concentration tested 10000 nM)
percent inhibition of viability [%]
Settings	1 nM	10 nM	100 nM	1000 nM	10000 nM
DERL-7 (IL-2 2.5 ng/mL) [2]	0.46	4.42	-2.34	4.15	52.2
IMC-1 (IL-2 20 ng/mL) [3]	-3.3	-4.34	-6.24	-6.22	-8.14
KAI3 (IL-2 2.5 ng/mL) [4]	1.53	10.3	11	18.4	51.4
KHYG-1 (IL-2 2.5 ng/mL) [5]	-4.65	-8.98	-2.6	-4.39	-2.75
NK-92 (IL-2 2.5 ng/mL) [6]	-10.2	1.4	2.48	-3.88	10.2
NK-YS (IL-2 2.5 ng/mL) [7]	-5.86	-8.43	-2.42	-0.04	39
NKL (IL-2 2.5 ng/mL) [8]	-14.2	-5.91	-4.8	5.16	-0.14
SNK-6 (IL-2 2.5 ng/mL) [9]	12	11.5	0.05	16.4	72.5
YT (IL-2 2.5 ng/mL) [10]	-3.7	-7.15	-2.55	-0.84	48.6
[1]	-1.3	3.24	-1.87	-1.09	-2.22
[11]	-11.1	-11.6	0.78	-4.13	-5.4
[12]	-8.89	-7.83	13.7	10.2	11
[13]	-2.47	1.21	-0.29	-0.41	-2.27
[14]	0.26	5.64	1.92	7.05	2.46

Settings	drug sensitivity score
DERL-7 (IL-2 2.5 ng/mL) [16]	3.42
IMC-1 (IL-2 20 ng/mL) [17]	0
KAI3 (IL-2 2.5 ng/mL) [18]	4.96
KHYG-1 (IL-2 2.5 ng/mL) [19]	0
NK-92 (IL-2 2.5 ng/mL) [20]	0
NK-YS (IL-2 2.5 ng/mL) [21]	1.92
NKL (IL-2 2.5 ng/mL) [22]	0
SNK-6 (IL-2 2.5 ng/mL) [23]	6.62
YT (IL-2 2.5 ng/mL) [24]	2.47
[15]	0
[25]	0
[26]	1.76
[27]	0
[28]	0

CC(C)C[C@H](NC(=O)[C@H](CCc1ccccc1)NC(=O)CN1CCOCC1)C(=O)N[C@@H](Cc1ccccc1)C(=O)N[C@@H](CC(C)C)C(=O)[C@@]1(C)CO1 [Carfilzomib] (max concentration tested 1000 nM)
percent inhibition of viability [%]
Settings	0.1 nM	1 nM	10 nM	100 nM	1000 nM
DERL-7 (IL-2 2.5 ng/mL) [2]	0.47	55.2	101	101	101
IMC-1 (IL-2 20 ng/mL) [3]	-4.55	-1.82	100	101	101
KAI3 (IL-2 2.5 ng/mL) [4]	-4.59	28.8	101	105	107
KHYG-1 (IL-2 2.5 ng/mL) [5]	-8.88	2.3	101	105	105
NK-92 (IL-2 2.5 ng/mL) [6]	1.15	15.4	101	106	106
NK-YS (IL-2 2.5 ng/mL) [7]	-4.19	3.04	101	104	105
NKL (IL-2 2.5 ng/mL) [8]	-2.93	-11	102	106	108
SNK-6 (IL-2 2.5 ng/mL) [9]	-4.32	5.11	99.5	101	101
YT (IL-2 2.5 ng/mL) [10]	-5.39	1.26	100	105	105
[1]	-5.98	-4.15	96.8	101	101
[11]	-1.09	26.1	97.9	99.6	99.8
[12]	-8.37	33.8	94	98.4	98.3
[13]	-2.72	22.8	97.1	99.5	99.7
[14]	-8.33	11.5	94.8	100	101

Settings	drug sensitivity score
DERL-7 (IL-2 2.5 ng/mL) [16]	37.2
IMC-1 (IL-2 20 ng/mL) [17]	30.3
KAI3 (IL-2 2.5 ng/mL) [18]	34.8
KHYG-1 (IL-2 2.5 ng/mL) [19]	30.9
NK-92 (IL-2 2.5 ng/mL) [20]	33.1
NK-YS (IL-2 2.5 ng/mL) [21]	30.9
NKL (IL-2 2.5 ng/mL) [22]	29.9
SNK-6 (IL-2 2.5 ng/mL) [23]	31.1
YT (IL-2 2.5 ng/mL) [24]	30.6
[15]	29.7
[25]	34
[26]	34.1
[27]	33.4
[28]	31.4
